Reference: PubChem BioAssay (NCI)
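A five-concentration, 48-hour dose response in 96-well plates underlies each endpoint, interpolated linearly between surrounding concentrations. The concentration for 50% growth inhibition is given as GI50. The concentration for full growth arrest is given as TGI.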

Assays:
Experiment in all cases: DTP human tumour cell line panel, 48 h
A549 NSCLC = test system: A549 NSCLC
OVCAR-8 ovarian = test system: OVCAR-8 ovarian
NCI-H226 lung = test system: NCI-H226 lung
SK-OV-3 ovarian = test system: SK-OV-3 ovarian
HS 578T breast = test system: HS 578T breast
CCRF-CEM leukemia = test system: CCRF-CEM leukemia
MDA-MB-468 breast = test system: MDA-MB-468 breast
KM12 colon = test system: KM12 colon
COLO 205 colon = test system: COLO 205 colon
NCI-H460 lung = test system: NCI-H460 lung
T-47D breast = test system: T-47D breast
MDA-MB-435 = test system: MDA-MB-435
TK-10 renal = test system: TK-10 renal
HOP-92 NSCLC = test system: HOP-92 NSCLC
UACC-62 melanoma = test system: UACC-62 melanoma
U251 CNS = test system: U251 CNS
NCI-H23 lung = test system: NCI-H23 lung
SNB-75 CNS = test system: SNB-75 CNS
A498 renal = test system: A498 renal
SF-539 CNS = test system: SF-539 CNS
M14 melanoma = test system: M14 melanoma
SW-620 colon = test system: SW-620 colon
SF-268 CNS = test system: SF-268 CNS
RPMI-8226 leukemia = test system: RPMI-8226 leukemia
BT-549 breast = test system: BT-549 breast
HOP-62 NSCLC = test system: HOP-62 NSCLC
MDA-MB-231 breast = test system: MDA-MB-231 breast
SF-295 CNS = test system: SF-295 CNS
PC-3 prostate = test system: PC-3 prostate
SK-MEL-5 melanoma = test system: SK-MEL-5 melanoma
LOX IMVI melanoma = test system: LOX IMVI melanoma
SN12C renal = test system: SN12C renal
NCI/ADR-RES ovarian = test system: NCI/ADR-RES ovarian
OVCAR-3 ovarian = test system: OVCAR-3 ovarian
NCI-H522 lung = test system: NCI-H522 lung
786-0 renal = test system: 786-0 renal
HL-60(TB) leukemia = test system: HL-60(TB) leukemia
OVCAR-4 ovarian = test system: OVCAR-4 ovarian
SK-MEL-2 melanoma = test system: SK-MEL-2 melanoma
MALME-3M melanoma = test system: MALME-3M melanoma
SNB-19 CNS = test system: SNB-19 CNS
MCF7 breast = test system: MCF7 breast
HCT-116 colon = test system: HCT-116 colon
HCT-15 colon = test system: HCT-15 colon
CAKI-1 renal = test system: CAKI-1 renal
OVCAR-5 ovarian = test system: OVCAR-5 ovarian
UO-31 renal = test system: UO-31 renal
K-562 leukemia = test system: K-562 leukemia
ACHN renal = test system: ACHN renal
SR leukemia = test system: SR leukemia
EKVX NSCLC = test system: EKVX NSCLC
HT29 colon = test system: HT29 colon
RXF 393 renal = test system: RXF 393 renal
DU-145 prostate = test system: DU-145 prostate
UACC-257 melanoma = test system: UACC-257 melanoma
HCC-2998 colon = test system: HCC-2998 colon
IGROV1 ovarian = test system: IGROV1 ovarian
MOLT-4 leukemia = test system: MOLT-4 leukemia
SK-MEL-28 melanoma = test system: SK-MEL-28 melanoma

With `O=c1ccc(Cn2c(C(F)(F)F)cc3c(Cl)ncnc32)c[nH]1` the GI50 (A549 NSCLC) was 64.8 µM, the TGI (A549 NSCLC) was over 100 µM and the GI50 (OVCAR-8 ovarian) was 3.51 µM. The TGI (OVCAR-8 ovarian) was 17.3 µM, the GI50 (NCI-H226 lung) was 31.7 µM and the TGI (NCI-H226 lung) was over 100 µM. For the same compound, the GI50 (SK-OV-3 ovarian) was 44.3 µM, the TGI (SK-OV-3 ovarian) was over 100 µM and the GI50 (HS 578T breast) was 8.76 µM. For the same compound, the TGI (HS 578T breast) was 50.4 µM, the GI50 (CCRF-CEM leukemia) was 4.32 µM and the TGI (CCRF-CEM leukemia) was over 100 µM. The GI50 (MDA-MB-468 breast) was 2.1 µM, the TGI (MDA-MB-468 breast) was 5.73 µM and the GI50 (KM12 colon) was 17.9 µM. It also gave a TGI (KM12 colon) of 40.3 µM, a GI50 (COLO 205 colon) of 86.6 µM and a TGI (COLO 205 colon) of over 100 µM. It also gave a GI50 (NCI-H460 lung) of 12 µM, a TGI (NCI-H460 lung) of 36.2 µM and a GI50 (T-47D breast) of 30.3 µM. The TGI (T-47D breast) was over 100 µM, the GI50 (MDA-MB-435) was 4.69 µM and the TGI (MDA-MB-435) was 20.5 µM. The GI50 (TK-10 renal) was over 100 µM, the TGI (TK-10 renal) was over 100 µM and the GI50 (HOP-92 NSCLC) was 23 µM. It also gave a TGI (HOP-92 NSCLC) of over 100 µM, a GI50 (UACC-62 melanoma) of 5.55 µM and a TGI (UACC-62 melanoma) of 19.7 µM. For the same compound, the GI50 (U251 CNS) was 22.5 µM, the TGI (U251 CNS) was 69.2 µM and the GI50 (NCI-H23 lung) was 3.97 µM. It also gave a TGI (NCI-H23 lung) of 18.4 µM, a GI50 (SNB-75 CNS) of 10.7 µM and a TGI (SNB-75 CNS) of 23.2 µM. It also gave a GI50 (A498 renal) of over 100 µM, a TGI (A498 renal) of over 100 µM and a GI50 (SF-539 CNS) of 17.3 µM. For the same compound, the TGI (SF-539 CNS) was 40.9 µM, the GI50 (M14 melanoma) was 4.08 µM and the TGI (M14 melanoma) was 22.1 µM. It also gave a GI50 (SW-620 colon) of 5.55 µM, a TGI (SW-620 colon) of 26.3 µM and a GI50 (SF-268 CNS) of 10.6 µM. For the same compound, the TGI (SF-268 CNS) was 28.9 µM, the GI50 (RPMI-8226 leukemia) was 23 µM and the TGI (RPMI-8226 leukemia) was over 100 µM. For the same compound, the GI50 (BT-549 breast) was 14 µM, the TGI (BT-549 breast) was 28.8 µM and the GI50 (HOP-62 NSCLC) was 46.7 µM. For the same compound, the TGI (HOP-62 NSCLC) was over 100 µM, the GI50 (MDA-MB-231 breast) was 4.65 µM and the TGI (MDA-MB-231 breast) was 18.2 µM. For the same compound, the GI50 (SF-295 CNS) was 28.2 µM, the TGI (SF-295 CNS) was over 100 µM and the GI50 (PC-3 prostate) was 17.1 µM. The TGI (PC-3 prostate) was 55.8 µM, the GI50 (SK-MEL-5 melanoma) was 4.06 µM and the TGI (SK-MEL-5 melanoma) was 15 µM. For the same compound, the GI50 (LOX IMVI melanoma) was 1.65 µM, the TGI (LOX IMVI melanoma) was 3.11 µM and the GI50 (SN12C renal) was 6.42 µM. The TGI (SN12C renal) was 23.4 µM, the GI50 (NCI/ADR-RES ovarian) was 14.2 µM and the TGI (NCI/ADR-RES ovarian) was 40.3 µM. For the same compound, the GI50 (OVCAR-3 ovarian) was 14.9 µM, the TGI (OVCAR-3 ovarian) was 32.8 µM and the GI50 (NCI-H522 lung) was 2.05 µM. It also gave a TGI (NCI-H522 lung) of 4.85 µM, a GI50 (786-0 renal) of 43.5 µM and a TGI (786-0 renal) of over 100 µM. The GI50 (HL-60(TB) leukemia) was 2.1 µM, the TGI (HL-60(TB) leukemia) was 5.97 µM and the GI50 (OVCAR-4 ovarian) was 17.9 µM. It also gave a TGI (OVCAR-4 ovarian) of 44.6 µM, a GI50 (SK-MEL-2 melanoma) of 16.9 µM and a TGI (SK-MEL-2 melanoma) of 32.6 µM. The GI50 (MALME-3M melanoma) was 15.9 µM, the TGI (MALME-3M melanoma) was 35 µM and the GI50 (SNB-19 CNS) was 20.7 µM. The TGI (SNB-19 CNS) was 59.4 µM, the GI50 (MCF7 breast) was 21.1 µM and the TGI (MCF7 breast) was 67.9 µM. The GI50 (HCT-116 colon) was 3.51 µM, the TGI (HCT-116 colon) was 29.2 µM and the GI50 (HCT-15 colon) was 2.93 µM. The TGI (HCT-15 colon) was 14.9 µM, the GI50 (CAKI-1 renal) was 23.5 µM and the TGI (CAKI-1 renal) was 99.4 µM. The GI50 (OVCAR-5 ovarian) was 61.7 µM, the TGI (OVCAR-5 ovarian) was over 100 µM and the GI50 (UO-31 renal) was 5.05 µM. For the same compound, the TGI (UO-31 renal) was 19.2 µM, the GI50 (K-562 leukemia) was 2.83 µM and the TGI (K-562 leukemia) was over 100 µM. The GI50 (ACHN renal) was 22.2 µM, the TGI (ACHN renal) was over 100 µM and the GI50 (SR leukemia) was 2.73 µM. The TGI (SR leukemia) was 11.8 µM, the GI50 (EKVX NSCLC) was 14.2 µM and the TGI (EKVX NSCLC) was 36 µM. For the same compound, the GI50 (HT29 colon) was 29 µM, the TGI (HT29 colon) was over 100 µM and the GI50 (RXF 393 renal) was 11.2 µM. For the same compound, the TGI (RXF 393 renal) was 32.1 µM, the GI50 (DU-145 prostate) was 38.7 µM and the TGI (DU-145 prostate) was over 100 µM. For the same compound, the GI50 (UACC-257 melanoma) was 3.18 µM, the TGI (UACC-257 melanoma) was 12.9 µM and the GI50 (HCC-2998 colon) was 2.9 µM. For the same compound, the TGI (HCC-2998 colon) was 10.1 µM, the GI50 (IGROV1 ovarian) was 2.29 µM and the TGI (IGROV1 ovarian) was 6.09 µM. It also gave a GI50 (MOLT-4 leukemia) of 3.21 µM, a TGI (MOLT-4 leukemia) of 17.2 µM and a GI50 (SK-MEL-28 melanoma) of 3.9 µM. The TGI (SK-MEL-28 melanoma) was 18.7 µM.
